The subject of data set [1] is human erythrocytes. As to the kind of experiment: in vitro AAPH-induced erythrocyte hemolysis, percent inhibition by purified flavonoids. Set-up: level of protection compared with ascorbic acid: dose or concentration left out as unconfirmed. In kind it is cell-based. As to conditions: for level of protection compared with ascorbic acid: Figure 3; for protection of human erythrocytes from free radical-induced hemolysis at lowest concentration: concentration as low as 2.5 mM; for protection against AAPH-induced erythrocyte hemolysis: concentrations 2.5 to 20 μM, 200 mM AAPH, 3 h. The source says:
(§1) Influence of cocoa flavanols and procyanidins on free radical-induced human erythrocyte hemolysis QIN YAN ZHU1 , DEREK D. SCHRAMM1 , HEIDRUN B. GROSS1 , ROBERTA R. HOLT1 , SUN H. KIM3 , TOMOKO YAMAGUCHI4 , CATHERINE L. KWIK-URIBE5 , & CARL L. KEEN1,2 1 Department of Nutrition, University of California, One Shields Avenue, Davis, CA 95616-8669, 2 Internal Medicine, University of California, One Shields Avenue, Davis, CA 95616-8669, 3 Department of Food Service Management and Nutrition, Kongju National University, Republic of Korea, 4 Department of Food Science and Nutrition, Nara Women's University, Japan, and 5 Analytical & Applied Sciences, Mars Incorporated, Hackettstown, NJ, USA Abstract Cocoa can be a rich source of antioxidants including the flavan-3-ols, epicatechin and catechin, and their oligomers (procyanidins). While these flavonoids have been reported to reduce the rate of free radical-induced erythrocyte hemolysis in experimental animal models, little is known about their effect on human erythrocyte hemolysis. The major objective of this work was to study the effect of a flavonoid-rich cocoa beverage on the resistance of human erythrocytes to oxidative stress. A second objective was to assess the effects of select purified cocoa flavonoids, epicatechin, catechin, the procyanidin Dimer B2 and one of its major metabolites, 30 -O-methyl epicatechin, on free radical-induced erythrocyte hemolysis in vitro. Peripheral blood was obtained from 8 healthy subjects before and 1, 2, 4 and 8 h after consuming a flavonoid-rich cocoa beverage that provided 0.25 g/kg body weight (BW), 0.375 or 0.50 g/kg BW of cocoa. Plasma flavanol and dimer concentrations were determined for each subject. Erythrocyte hemolysis was evaluated using a controlled peroxidation reaction. Epicatechin, catechin, 30 -O-methyl epicatechin and (-)-epicatechin-(4b . 8)-epicatechin (Dimer B2) were detected in the plasma within 1 h after the consumption of the beverage. […] The duration of the lag time, which reflects the capacity of cells to buffer free radicals, was increased. […] Erythrocytes from subjects consuming flavonoid-rich cocoa show reduced susceptibility to free radical-induced hemolysis p , 0:05. Keywords: Cocoa, flavanol, membrane oxidation, erythrocyte,-catechin, 3 0 -O-methyl epicatechin Introduction Flavonoids are a diverse group of polyphenolic compounds occurring in fruit, vegetables, tea and red wine. Diets rich in these compounds have been associated with a reduced risk for cardiovascular disease (Knekt et al. 2002, Kris-Etherton et al. 2004, Mennen et al. 2004, Morton et al. 2000, Sagara et al. 2004, Sesso et al. 2003). Depending on their processing, cocoa and chocolate can be rich sources of flavonoids, particularly the subclass of oligomeric flavonoids known as procyanidins (Adamson et al. 1999, Sanchez-Rabaneda et al. 2003, Steinberg et al. 2003) (Figure 1). Flavanols and procyanidins isolated from cocoa and chocolate have received considerable attention over the last several years as potential cardiovascular protective agents with putative positive effects on platelet function, blood pressure regulation, nitric oxide production, oxidative defense and the immune system (Heiss et al. 2003, Maron, 2004; Fisher et al. 2003; Pearson et al. 2002, Sadik et al. 2003, Taubert et al. 2003, Wan et al. 2001). ISSN 1740-2522 print/ISSN 1740-2530 online q 2005 Taylor & Francis Group Ltd. DOI: 10.1080/17402520512331329514 Correspondence: Carl L. Keen, Department of Nutrition, University of California, One Shields Avenue, Davis, CA 95616-8669. Tel: 1 530 752 6331. Fax: 1 530 752 8966. E-mail: clkeen@ucdavis.edu Clinical & Developmental Immunology, March 2005; 12(1): 27-34 These compounds can modulate the actions of oxidant-responsive transcription factor NF-kB (Mackenzie et al. 2004), and diets rich in cocoa flavonoids may be associated with reductions in DNA oxidative damage (Orozco et al. 2003). […]

A short description of data set [2]: plasma flavanol and dimer concentrations by HPLC after cocoa beverage. As to conditions: for time by which detected in the plasma: after consumption of the cocoa beverage, human subjects; for concentration in human plasma reached: after high dose of cocoa (0.50 g/kg BW). The data set is classed as in vivo, human.
Source text: as §1

Data set [3] in a line: antioxidant activity (preliminary, unpublished). As to conditions: preliminary work, unpublished data.

As to `COc1cc([C@H]2Oc3cc(O)cc(O)c3C[C@H]2O)ccc1O` [3ʹ-O-methyl epicatechin], in data set [1], the “level of protection compared with ascorbic acid” value is “exceeded that of ascorbic acid”, the “protection of human erythrocytes from free radical-induced hemolysis at lowest concentration” value is “significantly protect” and the “protection against AAPH-induced erythrocyte hemolysis” value was “dose-dependent protection”. Further, the “time by which detected in the plasma” value in data set [2] was at most 1 h.
Regarding `Oc1cc(O)c2c(c1)O[C@H](c1ccc(O)c(O)c1)[C@H](O)[C@H]2c1c(O)cc2c(c1O)C[C@@H](O)[C@@H](c1ccc(O)c(O)c1)O2` [Dimer B5, epicatechin-(4b . 6)-epicatechin], the “antioxidant activity compared with Dimer B2” value in data set [3] is reported as “more antioxidant activity than Dimer B2”.
Turning to `O.Oc1cc(O)c2c(c1)O[C@H](c1ccc(O)c(O)c1)[C@@H](O)C2` [catechin], in data set [1], the “level of protection compared with ascorbic acid” value is listed as “exceeded that of ascorbic acid”, the “protection of human erythrocytes from free radical-induced hemolysis at lowest concentration” value is recorded as “significantly protect” and the “protection against AAPH-induced erythrocyte hemolysis” value is reported as “dose-dependent protection”. Further, in data set [2], the “time by which detected in the plasma” value is given as at most 1 h and the “concentration in human plasma reached” value is recorded as 210 nm.
Take `Oc1cc(O)c2c(c1)O[C@H](c1ccc(O)c(O)c1)[C@H](O)C2` [epicatechin, (-)-epicatechin]: in data set [1], the “level of protection compared with ascorbic acid” value is reported as “exceeded that of ascorbic acid”, the “protection of human erythrocytes from free radical-induced hemolysis at lowest concentration” value is “significantly protect” and the “protection against AAPH-induced erythrocyte hemolysis” value is “dose-dependent protection”. The “protection compared with Dimer B2” value in data set [1] (individual compounds in vitro) was “stronger protection than Dimer B2”. In data set [2], the “time by which detected in the plasma” value was at most 1 h and the concentration in human plasma reached was determined as 2860 nM.
“(-)-epicatechin-(4β > 8)epicatechin [Dimer B2]”: in data set [1], the “level of protection compared with ascorbic acid” value is given as “exceeded that of ascorbic acid” and the “protection against AAPH-induced erythrocyte hemolysis” value was “dose-dependent protection”. For the same compound, the “time by which detected in the plasma” value in data set [2] is at most 1 h.

These data come from paper PMC2270722, “Influence of Cocoa Flavanols and Procyanidins on Free Radical-induced Human Erythrocyte Hemolysis” (Clinical and Developmental Immunology, 2005).
